Data published in ChEMBL document CHEMBL1133840, “Enols as potent antibacterial agents” (2001).
In brackets after ≈: the same amount, converted by molar mass.

Assays:
Type in all cases: functional
Enterococcus faecalis = test: Evaluated for its antibacterial activity against Enterococcus faecalis UC 9217
Escherichia coli = test: Evaluated for its antibacterial activity against Escherichia coli UC 6674
Haemophilus influenzae = test: Evaluated for its antibacterial activity against Haemophilus influenzae 30063
Klebsiella pneumoniae = test: Evaluated for its antibacterial activity against Klebsiella pneumoniae UC 12081
Pseudomonas aeruginosa = test: Evaluated for its antibacterial activity against Pseudomonas aeruginosa UC 6676
[1] = test system: Staphylococcus epidermidis; test: Evaluated for its antibacterial activity against Staphylococcus epidermidis UC 12084
Staphylococcus aureus [2] = test: Evaluated for its antibacterial activity against Staphylococcus aureus UC 9218
Streptococcus pneumoniae = test: Evaluated for its antibacterial activity against Streptococcus pneumoniae UC 9912
Staphylococcus aureus [3] = test: Antibacterial activity against Staphylococcus aureus UC 9218 in the presence of 0% serum
Staphylococcus aureus [4] = test: Antibacterial activity against Staphylococcus aureus UC 9218 in the presence of 10% serum
Staphylococcus aureus [5] = test: Antibacterial activity against Staphylococcus aureus UC 9218 in the presence of 5% serum

Row | MIC (Enterococcus faecalis) [µg/mL] | MIC (Escherichia coli) [µg/mL] | MIC (Haemophilus influenzae) [µg/mL] | MIC (Klebsiella pneumoniae) [µg/mL] | MIC (Pseudomonas aeruginosa) [µg/mL] | MIC [1] [µg/mL] | MIC (Staphylococcus aureus [2]) [µg/mL] | MIC (Streptococcus pneumoniae) [µg/mL] | MIC (Staphylococcus aureus [3]) [µg/mL] | MIC (Staphylococcus aureus [4]) [µg/mL] | MIC (Staphylococcus aureus [5]) [µg/mL] | SMILES
1 | > 128 | > 128 | > 128 | > 128 | > 128 | 128 (≈ 305 µM) | 128 (≈ 305 µM) | 64 (≈ 153 µM) |  |  |  | C[S+]([O-])CC(=O)N(CCc1cccc(C(F)(F)F)c1)c1cccc2ccccc12 (stereo not drawn)
2 | 2 (≈ 6.64 µM) | > 128 | 32 (≈ 106 µM) | > 128 | > 128 | 4 (≈ 13.3 µM) | 2 (≈ 6.64 µM) | 8 (≈ 26.6 µM) | 2 |  |  | FC(F)(F)c1cccc(CNc2cccc3ccccc23)c1
3 | > 128 | > 128 | > 128 | > 128 | > 128 | > 128 | 32 (≈ 85.7 µM) | 32 (≈ 85.7 µM) |  |  |  | O=C(CO)N(CCc1cccc(C(F)(F)F)c1)c1cccc2ccccc12
4 | > 128 | > 128 | > 128 | > 128 | > 128 | > 128 | > 128 | 32 (≈ 80.1 µM) |  |  |  | CC(=O)CC(=O)N(CCc1cccc(C(F)(F)F)c1)c1cccc2ccccc12
5 | 1 (≈ 3.16 µM) | > 128 | 1 (≈ 3.16 µM) | > 128 | > 128 | 1 (≈ 3.16 µM) | 2 (≈ 6.32 µM) | 2 (≈ 6.32 µM) | 2 | 64 | 16 | Clc1ccc(CCNc2cccc3ccccc23)c(Cl)c1
6 | > 128 | > 128 | > 128 | > 128 | > 128 | > 128 | > 128 | 16 (≈ 41.8 µM) |  |  |  | N#CCC(=O)N(CCc1cccc(C(F)(F)F)c1)c1cccc2ccccc12
7 | > 128 | > 128 | > 128 | > 128 | > 128 | > 128 | > 128 | > 128 |  |  |  | CSCC(=O)N(CCc1cccc(C(F)(F)F)c1)c1cccc2ccccc12
8 | 2 (≈ 7.16 µM) | > 128 | 4 (≈ 14.3 µM) | > 128 | > 128 | 2 (≈ 7.16 µM) | 4 (≈ 14.3 µM) | 1 (≈ 3.58 µM) | 4 | 32 | 16 | Cc1ccccc1NCCc1cccc(C(F)(F)F)c1
9 | 16 (≈ 52.1 µM) | > 128 | 32 (≈ 104 µM) | > 128 | > 128 | 16 (≈ 52.1 µM) | 16 (≈ 52.1 µM) | 16 (≈ 52.1 µM) | 16 | 128 | 32 | COc1ccc(OC)c(CCNc2cccc3ccccc23)c1
10 | 2 (≈ 6.18 µM) | > 128 | 64 (≈ 198 µM) | > 128 | > 128 | 8 (≈ 24.7 µM) | 8 (≈ 24.7 µM) | 16 (≈ 49.5 µM) | 8 | 128 | 64 | c1ccc(-c2ccc(CCNc3cccc4ccccc34)cc2)cc1
11 | 4 (≈ 9.42 µM) | > 128 | > 128 | > 128 | > 128 | 4 (≈ 9.42 µM) | 8 (≈ 18.8 µM) | 2 (≈ 4.71 µM) | 8 | 128 | 128 | CC(=O)C(C#N)C(=O)N(CCc1cccc(C(F)(F)F)c1)c1cccc2ccccc12 (stereo not drawn)
12 | > 1 | > 128 | 4 (≈ 12.7 µM) | > 128 | > 128 | 2 (≈ 6.34 µM) | 4 (≈ 12.7 µM) | 2 (≈ 6.34 µM) | 4 | 64 | 32 | FC(F)(F)c1cccc(CCNc2ccc3ccccc3c2)c1
13 | 4 (≈ 8.82 µM) | > 128 | 8 (≈ 17.6 µM) | > 128 | > 128 | 2 (≈ 4.41 µM) | 2 (≈ 4.41 µM) | 8 (≈ 17.6 µM) | 2 | 64 | 16 | O=C(CC(=O)C(F)(F)F)N(CCc1cccc(C(F)(F)F)c1)c1cccc2ccccc12

Row | SMILES | MIC (Enterococcus faecalis) [µg/mL] | MIC (Escherichia coli) [µg/mL] | MIC (Haemophilus influenzae) [µg/mL] | MIC (Klebsiella pneumoniae) [µg/mL] | MIC (Pseudomonas aeruginosa) [µg/mL] | MIC [1] [µg/mL] | MIC (Staphylococcus aureus [2]) [µg/mL] | MIC (Streptococcus pneumoniae) [µg/mL] | MIC (Staphylococcus aureus [3]) [µg/mL] | MIC (Staphylococcus aureus [4]) [µg/mL] | MIC (Staphylococcus aureus [5]) [µg/mL]
14 | CCc1cccc2ccccc12 | 128 (≈ 819 µM) | > 128 | > 128 | > 128 | > 128 | 128 (≈ 819 µM) | 128 (≈ 819 µM) | 32 (≈ 205 µM) | 128 | > 128 | > 128
15 | CO/N=C(\C(=O)N[C@@H]1C(=O)N2C(C(=O)O)=C(COC(C)=O)CS[C@H]12)c1csc(N)n1 [CEFOTAXIME] |  | 0.06 (≈ 0.132 µM) | 0.015 (≈ 0.0329 µM) | 0.06 (≈ 0.132 µM) | 16 (≈ 35.1 µM) |  |  |  |  |  | 
16 | CN[C@H](CC(C)C)C(=O)N[C@H]1C(=O)N[C@@H](CC(N)=O)C(=O)N[C@H]2C(=O)N[C@H]3C(=O)N[C@H](C(=O)N[C@H](C(=O)O)c4cc(O)cc(O)c4-c4cc3ccc4O)[C@H](O)c3ccc(c(Cl)c3)Oc3cc2cc(c3O[C@@H]2O[C@H](CO)[C@@H](O)[C@H](O)[C@H]2O[C@H]2C[C@](C)(N)[C@H](O)[C@H](C)O2)Oc2ccc(cc2Cl)[C@H]1O [VANCOMYCIN] | 1 (≈ 0.69 µM) |  |  |  |  |  |  | 0.25 (≈ 0.173 µM) |  |  | 
